In patent US11939327B2, “Heterocyclic compounds” (Takeda Pharmaceutical Company Limited, priority 2017, dated 2024):

Key:
human GluR1 flip = biological target: T1, human GluR1 flip (Homo sapiens, UniProt P42261); assay: AMPA receptor function-enhancing activity using calcium influx as index (CHO-K1/GluR1 flip/stargazin-expressing cells); assay type: cell-based; conditions: CHO-K1, test compound 30 μM with 3 mM glutamic acid, 100% = 3 mM glutamic acid + 300 μM cyclothiazide, 0% = 3 mM glutamic acid alone, read-out: hGluR1 flip/30 μM (%)
T1 construct: expressed in transfected cells; host or cells: CHO-K1
From the text: Experimental Example 1 Measurement method of AMPA receptor function-enhancing activity of compound using calcium influx as index
(1) Construction of Expression Gene
Human GluR1 flip cDNA was amplified by PCR method using forward primer […] (SEQ ID NO: 1) and reverse primer […] (SEQ ID NO: 2) artificially synthesized using human brain-derived cDNA (BD Bioscience) as a template. The amplified product was digested with restriction enzymes EcoRI, NotI (TAKARA SHUZO CO. LTD.) and incorporated into the same site of pcDNA3.1(+) (Invitrogen) to construct pcDNA3.1(+)/human GluR1 flip gene. Human stargazin cDNA was amplified by PCR method using forward primer […] (SEQ ID NO: 3) and reverse primer […] (SEQ ID NO: 4) artificially synthesized using human hippocampus cDNA as a template. The amplified product was digested with restriction enzymes XhoI, BamHI (TAKARA SHUZO CO. LTD.) and incorporated into the same site of pcDNA3.1(−) (Invitrogen) to construct pcDNA3.1 Zeo(−)/human stargazing gene.
(2) Construction of GluR1 Flip/Stargazin Expressing Cell
CHO-K1 cells passaged in a culture medium (Ham's F12 medium (Invitrogen) added with 10% inactivated fetal bovine serum (Morgate) and penicillin, streptomycin (Invitrogen)) were detached using 0.05% trypsin and 0.53 mM EDTA (Invitrogen) diluted with D-PBS(−). The detached cells were suspended in a culture medium, and recovered by centrifugation at 1,000 rpm. The recovered cells were re-suspended in D-PBS(−) and added into 0.4 cm electroporation cuvette (BioRad). pcDNA3.1(+)/human GluR1 flip gene (5 μg) and pcDNA3.1 Zeo(−)/human stargazin gene (15 μg) were added, and introduced into CHO-K1 cells under the conditions of 950 μFd, […] and using Gene Pulser II (BioRad). The introduced cells were cultured overnight in a culture medium. The next day, using a selection medium (culture medium added with zeocin (Invitrogen) at 250 μg/mL), the cells were plated in a 96 well plate at 250 cells/well. The clones showing drug resistance were selected, and GluR1 flip/stargazin expression clones were selected by an assay method shown below using calcium influx as an index.
(3) Measurement Method of AMPA Receptor Function-Enhancing Activity of Compound, Using Calcium Influx as an Index
CHO-K1/GluR1 flip/stargazin-expressing cells were plated on a 384 well black bottom transparent plate, and cultured for 2 days in a CO2 incubator (SANYO ELECTRIC Co. Ltd.) at 37° C. The medium of the cell plate was removed. A calcium indicator (Calcium5 Assay Kit, Molecular Devices) was diluted with an assay buffer (HBSS (Thermo Fisher Scientific), 0.1% BSA (Merck Millipoer) and 10 mM HEPES (Thermo Fisher Scientific)), and 1.25 mM probenecid (Dojindo Laboratories) was added thereto. The mixture prepared above was added at 30 μL/well (100 μL/well in case of 96 wells) to the well, and the well was left standing in 37° C., CO2 incubator for 1 hr. The cell plate was set in CellLux (PerkinElmer), a mixture (15 μL) (50 μL/well in case of 96 wells) of […] glutamic acid (final concentration 3 mM) diluted with an assay buffer and a test compound (test compound concentration 30 μM) was added thereto, and variation in the amount of fluorescence was measured for 3 min. The variation of fluorescence level of a well added with final concentration 3 mM of glutamic acid and 300 μM cyclothiazide (TOCRIS) was defined as 100%, the variation of fluorescence level of a well added with final concentration 3 mM of glutamic acid alone was defined as 0%, and the activity of the compound was calculated by the following formula. activity (%)=(X−C)/(T−C)×100 • T: variation of fluorescence level of well added with final concentration 3 mM of glutamic acid and 300 μM cyclothiazide • C: variation of fluorescence level of well added with final concentration 3 mM of glutamic acid alone • X: variation of fluorescence level of well added with test compound

Long Evans rats = assay: Novel object recognition test; assay type: in vivo, rat; conditions: male Long Evans rats; for Novel Object Interaction (%): 1 mg/kg p.o. 1 hr before acquisition trial and 1 hr before retention trial, retention trial 48 hr after acquisition, mean ± standard error; for novel object interaction (result in words): 1 mg/kg p.o., versus 0 mg/kg
From the text: Experimental Example 2 Novel Object Recognition Test
Male Long Evans rats were supplied by Japan SLC, and used at 7-week-old in the experiments. After arrival to the vivarium, animals were allowed a minimum of 1 week for acclimation. They were housed under a 12:12-h light/dark cycle in a temperature- and humidity-controlled laboratory and allowed food and water ad libitum.
A test compound was suspended in 0.5% methylcellulose in distilled water and orally administered (p.o.). All test compounds were dosed in a volume of 2 mL/kg body weight for rats.
(3) Novel Object Recognition Test
Novel object recognition test is a test system utilizing the novel object preference characteristics of rodents. This novel object recognition test consists of two trials, “acquisition trial” and “retention trial”, and, when an interval between these two trials is short, rodents spend a longer period for novel object exploration behaviors, and the preference dissipates as the interval gets longer. From this, the behavioral change in the novel object recognition test is considered to reflect the rodents' memory of the object during the acquisition trial. In this experimental example, the retention trial was carried out 48 hr after the acquisition trial. On the day before the test, for acclimation, Long-Evans rats were allowed to freely move about the test box (40×40×50 cm) for 10 minutes. On the test day, the rats were acclimated to the test room for about 1 hr prior to the test. The test compound (Compound A (Example 10), Compound B (Example 35), 1 mg/kg) were orally administered to the rats twice 1 hr before the acquisition trial and 1 hr before the retention trial. For the acquisition trial, two identical objects (A1, A2) were placed in the test box. The rats were put in the test box for 3 min, and the duration contacting each object was measured. The retention trial was carried out 48 hr after the acquisition trial. For the retention trial, the familiar object (A3) used for the acquisition trial and the novel object (B) different shape from A3 were placed in the test box. The rats were put in the test box for 3 min. The duration contacting each object in the acquisition trial and the retention trial, and the novel object interaction (%) was calculated. The novel object interaction (%) was expressed as (the duration contacting the novel object)/[(the duration contacting the novel object)+(the duration contacting the familiar object)]×100(%) at mean±standard error.

T1 sequence (P42261 19-906 isoform P42261-2 limits assumed): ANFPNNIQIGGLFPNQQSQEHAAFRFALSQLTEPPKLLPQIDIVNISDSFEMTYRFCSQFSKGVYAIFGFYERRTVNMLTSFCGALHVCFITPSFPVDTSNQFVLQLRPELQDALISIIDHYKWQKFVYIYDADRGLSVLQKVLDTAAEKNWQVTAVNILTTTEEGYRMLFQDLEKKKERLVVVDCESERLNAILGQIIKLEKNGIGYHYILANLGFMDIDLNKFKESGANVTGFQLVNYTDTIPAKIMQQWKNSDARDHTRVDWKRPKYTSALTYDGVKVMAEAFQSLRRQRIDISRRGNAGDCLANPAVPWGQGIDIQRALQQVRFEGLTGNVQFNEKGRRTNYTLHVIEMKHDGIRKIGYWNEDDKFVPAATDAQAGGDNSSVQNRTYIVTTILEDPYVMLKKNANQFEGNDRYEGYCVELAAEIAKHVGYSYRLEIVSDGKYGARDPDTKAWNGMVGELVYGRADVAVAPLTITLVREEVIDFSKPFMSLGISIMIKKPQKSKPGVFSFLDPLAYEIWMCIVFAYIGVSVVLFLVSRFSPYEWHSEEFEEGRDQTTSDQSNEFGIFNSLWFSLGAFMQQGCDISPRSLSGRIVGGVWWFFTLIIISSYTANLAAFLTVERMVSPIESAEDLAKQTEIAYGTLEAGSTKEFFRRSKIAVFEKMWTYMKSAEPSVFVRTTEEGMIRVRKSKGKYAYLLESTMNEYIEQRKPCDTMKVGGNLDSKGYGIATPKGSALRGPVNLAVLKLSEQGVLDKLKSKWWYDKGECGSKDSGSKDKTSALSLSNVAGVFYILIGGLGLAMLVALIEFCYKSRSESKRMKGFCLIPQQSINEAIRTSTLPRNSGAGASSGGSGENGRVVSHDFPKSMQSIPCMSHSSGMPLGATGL
T1 sequence (Q9Y698 whole entry partner): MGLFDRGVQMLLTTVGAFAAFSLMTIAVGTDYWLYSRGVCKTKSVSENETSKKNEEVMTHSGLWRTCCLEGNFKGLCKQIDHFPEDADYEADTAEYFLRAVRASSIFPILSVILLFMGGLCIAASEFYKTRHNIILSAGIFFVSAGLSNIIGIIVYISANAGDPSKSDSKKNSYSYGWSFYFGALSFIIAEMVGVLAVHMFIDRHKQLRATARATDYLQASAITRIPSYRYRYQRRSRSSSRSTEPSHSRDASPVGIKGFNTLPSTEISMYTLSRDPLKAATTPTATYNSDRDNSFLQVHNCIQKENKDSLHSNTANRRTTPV

| activation at 30 µM (human GluR1 flip) [%] | Compound | Novel Object Interaction (%) (Long Evans rats) | novel object interaction (result in words) (Long Evans rats) |
| --- | --- | --- | --- |
| 90.5 | O=C(c1ccc(-c2nccc3c2nc(C(F)(F)F)n3CC(F)F)cc1F)N1CCOCC1 [Example 10, (4-(1-(2,2-difluoroethyl)-2-(trifluoromethyl)-1H-imidazo[4,5-c]pyridin-4-yl)-2-fluorophenyl)(morpholin-4-yl)methanone] | 56.32 ± 1.56 | increased |
| 89.8 | CO[C@@H]1CCN(C(=O)c2ccc(-c3nccc4c3nc(C(F)(F)F)n4CC(F)F)cc2F)C1 [Example 37, (4-(1-(2,2-difluoroethyl)-2-(trifluoromethyl)-1H-imidazo[4,5-c]pyridin-4-yl)-2-fluorophenyl)((3R)-3-methoxypyrrolidin-1-yl)methanone] | – | – |
| 83.9 | O=C(c1ccc(-c2nccc3c2nc(C(F)(F)F)n3CC(F)F)c(F)c1F)N1CCOCC1 [Example 42, (4-(1-(2,2-difluoroethyl)-2-(trifluoromethyl)-1H-imidazo[4,5-c]pyridin-4-yl)-2,3-difluorophenyl)(morpholin-4-yl)methanone] | – | – |
| 85.5 | C[C@@H]1CN(C(=O)c2ccc(-c3nccc4c3nc(C(F)(F)F)n4CC(F)F)cc2F)CCO1 [Example 44, (4-(1-(2,2-difluoroethyl)-2-(trifluoromethyl)-1H-imidazo[4,5-c]pyridin-4-yl)-2-fluorophenyl)((2R)-2-methylmorpholin-4-yl)methanone] | – | – |
| 80.2 | O=C(c1ccc(-c2nccc3c2nc(C(F)(F)F)n3CC(F)F)cc1F)N1CCOCC2(CC2)C1 [Example 48, (4-(1-(2,2-difluoroethyl)-2-(trifluoromethyl)-1H-imidazo[4,5-c]pyridin-4-yl)-2-fluorophenyl)(5-oxa-8-azaspiro[2.6]non-8-yl)methanone] | – | – |
| 67.1 | COC1CCN(C(=O)c2ccc(-c3nccc4c3nc(C(F)(F)F)n4CC(F)F)cc2F)CC1 [Example 52, (4-(1-(2,2-difluoroethyl)-2-(trifluoromethyl)-1H-imidazo[4,5-c]pyridin-4-yl)-2-fluorophenyl)(4-methoxypiperidin-1-yl)methanone] | – | – |
| 69 | O=C(c1ccc(-c2nccc3c2nc(C(F)(F)F)n3CC(F)F)c(F)c1)N1CCOCC1 [Example 53, (4-(1-(2,2-difluoroethyl)-2-(trifluoromethyl)-1H-imidazo[4,5-c]pyridin-4-yl)-3-fluorophenyl)(morpholin-4-yl)methanone] | – | – |

The remaining lines, values behind:

| Compound | activation at 30 µM (human GluR1 flip) [%] | Novel Object Interaction (%) (Long Evans rats) | novel object interaction (result in words) (Long Evans rats) |
| --- | --- | --- | --- |
| O=C(c1ncc(-c2cccc3c2nc(C(F)(F)F)n3CC(F)F)cc1F)N1CCOCC1 [Example 35, (5-(1-(2,2-difluoroethyl)-2-(trifluoromethyl)-1H-benzimidazol-4-yl)-3-fluoropyridin-2-yl)(morpholin-4-yl)methanone] | 81.2 | 61.28 ± 2.35 | increased |
| Cc1cc2c(nc(C(F)(F)F)n2CC(F)F)c(-c2ccc(C(=O)N3CCOCC(F)(F)C3)c(F)c2)n1 [Example 38, (4-(1-(2,2-difluoroethyl)-6-methyl-2-(trifluoromethyl)-1H-imidazo[4,5-c]pyridin-4-yl)-2-fluorophenyl)(6,6-difluoro-1,4-oxazepan-4-yl)methanone] | 100 | – | – |
| O=C(c1ccc(-c2cccc3c2nc(C(F)(F)F)n3CC(F)F)cn1)N1CCOCC(F)(F)C1 [Example 39, (5-(1-(2,2-difluoroethyl)-2-(trifluoromethyl)-1H-benzimidazol-4-yl)pyridin-2-yl)(6,6-difluoro-1,4-oxazepan-4-yl)methanone] | 110 | – | – |
| O=C(c1ccc(-c2cccc3c2nc(C(F)(F)F)n3CC(F)F)nc1)N1CCOCC(F)(F)C1 [Example 46, (6-(1-(2,2-difluoroethyl)-2-(trifluoromethyl)-1H-benzimidazol-4-yl)pyridin-3-yl)(6,6-difluoro-1,4-oxazepan-4-yl)methanone] | 77 | – | – |
| O=C(c1ccc(-c2nccc3c2nc(C(F)(F)F)n3CC(F)F)cc1)N1CCOCC(F)(F)C1 [Example 50, (4-(1-(2,2-difluoroethyl)-2-(trifluoromethyl)-1H-imidazo[4,5-c]pyridin-4-yl)phenyl)(6,6-difluoro-1,4-oxazepan-4-yl)methanone] | 122 | – | – |
| O=C(c1ccc(-c2cccc3c2nc(C(F)(F)F)n3CC(F)F)c(F)c1)N1CCOCC1 [Example 51, (4-(1-(2,2-difluoroethyl)-2-(trifluoromethyl)-1H-benzimidazol-4-yl)-3-fluorophenyl)(morpholin-4-yl)methanone] | 113 | – | – |
